From paper PMC5766618, “Paper-based inkjet bioprinting to detect fluorescence resonance energy transfer for the assessment of anti-inflammatory activity” (Scientific Reports, 2018)

Molecular target: cAMP-specific 3′,5′-cyclic phosphodiesterase 4B (PDE4B) (Homo sapiens, UniProt Q07343)
Sequence (Q07343 whole entry): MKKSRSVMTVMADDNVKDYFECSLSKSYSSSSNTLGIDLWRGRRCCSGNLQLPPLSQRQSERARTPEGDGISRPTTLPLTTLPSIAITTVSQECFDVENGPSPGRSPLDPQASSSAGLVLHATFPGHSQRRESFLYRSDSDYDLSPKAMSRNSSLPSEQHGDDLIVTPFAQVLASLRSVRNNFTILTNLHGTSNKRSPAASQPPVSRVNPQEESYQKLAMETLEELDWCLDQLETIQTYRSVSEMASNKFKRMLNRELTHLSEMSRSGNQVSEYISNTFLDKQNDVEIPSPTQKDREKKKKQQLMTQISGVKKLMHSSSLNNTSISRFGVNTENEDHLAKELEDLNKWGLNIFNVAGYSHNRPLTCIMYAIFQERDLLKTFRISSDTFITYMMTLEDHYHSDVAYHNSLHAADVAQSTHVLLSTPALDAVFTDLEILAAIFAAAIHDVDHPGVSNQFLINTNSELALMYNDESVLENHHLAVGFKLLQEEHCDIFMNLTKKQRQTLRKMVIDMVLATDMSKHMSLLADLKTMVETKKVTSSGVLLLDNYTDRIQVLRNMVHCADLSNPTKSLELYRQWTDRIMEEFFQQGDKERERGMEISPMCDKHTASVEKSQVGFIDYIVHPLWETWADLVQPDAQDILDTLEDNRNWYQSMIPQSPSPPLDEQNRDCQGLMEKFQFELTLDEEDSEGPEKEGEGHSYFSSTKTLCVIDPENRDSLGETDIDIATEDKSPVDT

COc1ccc(C2CNC(=O)C2)cc1OC1CCCC1 (stereo not shown) [roliparm]
inkjet-printed paper-based competitive FRET cAMP assay of PDE4B inhibition (IM50): 2.46e-13 mol
